Results reported in patent US10160949B2, “Agent for improving sperm-motility” (Tokyo Metropolitan Geriatric Hospital and Institute of …, priority 2013, dated 2018).
Where two headings read alike, the source gives them in different places.

How the values were obtained:
mitochondria of sperm = conditions: FIG. 7(d); compared with untreated and N2 treatment groups; P<0.001
Description: The stained sperm were visualized using a laser scanning confocal microscope (Leica, Wetzlar, Germany). In addition, the viability of sperm was checked by PI fluorescence staining.
Meanwhile, the differential interference images were designated as DIC (Differential interference contrast). […] FIG. 7(d) is a graph showing the results of semi-quantifying, using the ImageJ, the fluorescent intensity of the sperm stained with TMRM.

freeze-thawed sperm = tested on: freeze-thawed sperm
Procedure: Semen that was transferred to the clinic within four hours after ejaculation was suspended in a solution in which equal amounts of the Cleavage Medium and TEST-yolk buffer (TYB; Irvine Scientific, CA, USA) had been mixed. Then, the mixture was dispensed into cryotubes. The resulting cryotubes were once exposed to nitrogen vapor for 5 min, and were then cryopreserved in liquid nitrogen. At the time of thawing, each cryotube was heated in warm water at 37° C. After that, the sperm suspension in the cryotube was dispensed into four vials.
After the dispensed sperm suspension was washed for 5 min with each sperm washing medium, the motility of sperm was measured.

[1] = tested on: sperm on day 5 after collection; experiment: Migration distance of forwardly moving sperm by video recording and CASA (ImageJ); format: cell-based, human; conditions: FIG. 5; for average migration distance compared among untreated, H2 and N2 groups: 10 patients, 10 s of forward movement, P=0.2193
Procedure: Then, the recorded video was analyzed by the CASA system (NIH) (computer assisted sperm analysis using ImageJ, description of necessary components and use of free software) to determine the migration distance of forwardly moving sperm.

[2] = tested on: sperm that had a passage of five days or more after collection; conditions: for percentage of sperm with forward motility compared with control (untreated) group: duration of gas treatment 5 min; for samples in which the percentage of sperm with forward motility was increased: of 17 samples with forward motility less than 15%
Procedure: In principle, the percentage (%) of sperm with motility (A+B+C)/(A+B+C+D) was calculated as an average as obtained by repeating the above examination two or three times. […] Here, as used herein, the percentage of sperm with forward motility is represented by the formula: (A+B)/(A+B+C+D).
The percentage of sperm with motility (the percentage of sperm with forward motility and the percentage of sperm with non-forward motility) and the percentage of immotile sperm were compared between the groups. […] To check whether or not the gas passed through the acryl box, another passage was inserted into a water-containing beaker. Whether the gas passed therethrough was confirmed by observing the occurrence of bubbling via the passage in the beaker. With regard to the N2 gas, the procedure was likewise performed and all were carried out at room temperature. A hundred μl of the sperm suspension was added dropwise to a 1008 dish. Before the mixed gas was made to pass therethrough, the dish was placed in the acryl box. […] After 40 min had passed, each sperm suspension was well mixed by pipetting. Next, several μl of the sperm suspension was added dropwise to a Makler container. Then, the sperm concentration, the number of sperm with forward motility, the number of sperm with non-forward motility, and the number of immotile sperm were determined visually. Also, with respect to the untreated group in which the sperm suspension was used as it was, the sperm concentration, the number of sperm with forward motility, the number of sperm with non-forward motility, and the number of immotile sperm were likewise determined visually. […] Samples of the untreated group in which the percentage of sperm with forward motility exceeded 15% were excluded. Regarding the rest samples, one sample was grouped into three treatment groups and each treatment group was measured twice. Specifically, with respect to each sample, the ratio of the number of sperm with forward motility to the total number of sperm in the visual field was defined as the percentage of sperm with forward motility. The ratio of the number of sperm with some motility (a moving flagellum), but without forward motility to the total number of sperm was defined as the percentage of sperm with non-forward motility.

[3] = mixed gas containing 50% hydrogen molecules used for bubbling of a liquid; cited from earlier work
[4] = Concentration of hydrogen in liquid (hydrogen electrode); format: physicochemical; conditions: 10 min after 30 min of the H2 treatment
Procedure: Next, the culture solution was left to stand. […] The culture solution as so prepared was used to wash sperm, and a change in their motility was examined. […] After re-centrifugation, the concentration was decreased to 100 μM.

[5] = FIG. 3(a), sperm 5 days or more after collection, mixed gas treatment 40 min, 30 samples
[6] = FIG. 4, 17 samples from patients with forward motility less than 15%

## [HH] [H2, hydrogen]
Mitochondria of sperm
  intensity of TMRM fluorescence (mitochondrial membrane potential): strong intensity of TMRM fluorescence
freeze-thawed sperm; FIG. 8(a), 6 samples, patients with forward motility 50% or higher, washing medium containing 50% of H2, 5 min
  percentage of sperm with forward motility (average): 61.3%
freeze-thawed sperm; FIG. 8(a), 6 samples, patients with forward motility 50% or higher, washing medium containing 75% of H2, 5 min
  percentage of sperm with forward motility (average): 71.0%
freeze-thawed sperm; FIG. 8(a), 6 samples, patients with forward motility 50% or higher, washing medium containing 100% of H2, 5 min
  percentage of sperm with forward motility (average): 70.0%
freeze-thawed sperm; FIG. 8(b), 15 samples, patients with forward motility less than 50%, washing medium containing 50% of H2, 5 min
  percentage of sperm with forward motility (average): 41.2%
freeze-thawed sperm; FIG. 8(b), 15 samples, patients with forward motility less than 50%, washing medium containing 75% of H2, 5 min
  percentage of sperm with forward motility (average): 40.8%
freeze-thawed sperm; FIG. 8(b), 15 samples, patients with forward motility less than 50%, washing medium containing 100% of H2, 5 min
  percentage of sperm with forward motility (average): 31.4%
[1]
  average migration distance compared among untreated, H2 and N2 groups: no significant difference
[1]; compared with untreated and N2 groups
  migration distance per second of the sperm: the longest one
[2]; [5]
  percentage of sperm with forward motility (average): 16.8%
[2]; FIG. 3(b), duration of H2 treatment 30 or 60 min
  samples with percentage of sperm with forward motility higher than in the control: about 70 % of the samples
[2]; FIG. 3(b)
  percentage of sperm with forward motility compared with control (untreated) group: tended to decrease
[2]; FIG. 3(b), listed as gaseous agent for improving sperm-motility
  percentage of sperm with forward motility compared with control (untreated) group: did not result in the recovery of the motility of sperm
[2]; [6]
  percentage of sperm with forward motility (average): 11%
[2]; FIG. 4
  samples in which the percentage of sperm with forward motility was increased: 16 samples
[2]; FIG. 6, 30 to 150 min after 30 min H2 treatment, 10 patients
  time course of forward motility after treatment: a big change in the forward motility of sperm was not observed
[2]; FIG. 6, H2 treatment 30 min, retreatment 30 min at 24 hours
  motility 24 hours after treatment: had motility even after 24 hours
[2]; of 12 samples (25%)
  samples of sperm with non-forward motility among samples in which forward motility was not recovered: 3 samples
[2]; of 17 samples (35%), no recovery in untreated and N2 groups
  samples in which forward movement was recovered only in the H2 treatment group: Six
[2]; of 18 samples in which forward motility was recovered (94%), P<0.01
  samples in which the H2 treatment group exhibited a longer migration distance (increased forward motility) than the N2 treatment group: 17 samples
[3]
  hydrogen solubility: about 0.4 mM
[4]
  hydrogen in 10 μl of the sperm suspension: eliminated

## N#N [N2, nitrogen, reference compound]
[1]
  average migration distance compared among untreated, H2 and N2 groups: no significant difference
[2]; [5]
  percentage of sperm with forward motility (average): 7.7%
[2]; [6]
  percentage of sperm with forward motility (average): 3.6%
[2]; FIG. 4
  samples in which the percentage of sperm with forward motility was increased: four
